ChEMBL document CHEMBL3301451, “MMV Malaria Box gametocyte functional viability assay screening”

Assays:
Assay type in all cases: functional
Design in all cases: concentration or dose not given beside the values
Plasmodium berghei = experiment: MMV: P. berghei-infected blood was withdrawn from mice by cardiac pucture before being immediately added to ookinete culture medium containing test compounds. 26 hr later, GFP-positive ookinetes were identified and counted by automated microscopy. All compounds were tested in 4 independent experiments and data presented here is the mean.
Plasmodium falciparum [1] = experiment: (§1) MMV: P. falciparum NF54 functionally mature Stage V gametocytes were incubated for 24 hr in the presence of the test compounds. Gamete formation was then triggered by addition of 2uM xantheurenic acid and temperature decrease to ~20C. Male gamete exflagellation was recorded and analysed by automated microscopy after 20 min. All compounds were tested in 4 independent experiments and data presented here is the mean.
Plasmodium falciparum [2] = experiment: as §1, with “Female” for “Male”, “formation” for “exflagellation”, “24 hr later” for “and analysed”, “detection of surface labelling of female gametes with a Cy3-conjugated antibody reactive to Pfs25.” for “after 20 min.”; details: NF54, 24 h

Compound | inhibition (Plasmodium berghei) [%] | inhibition (Plasmodium falciparum [1]) [%] | inhibition (Plasmodium falciparum [2]) [%]
COc1ccc(-c2c(C)nn3c(N)c(C#N)cnc23)cc1OC | 6.903 | -13.8 | -16.8
CCN(CC)CCNc1ncnc2c1[nH]c1ccc(Br)cc12 | 9.06 | -106 | 13.8
Nc1nc(Nc2cccc(F)c2)nc2ccccc12 | 16.83 | -16.2 | -41.8
CCCCC(O)(c1ccc(Cl)cc1)C(CN1CCOCC1)c1ccc(Cl)cc1.Cl (configuration not stated) | -12.32 | -10.1 | -22.4
O=C(Nc1ccc(-c2nc3cc(NC(=O)c4ccc(Cl)cc4)ccc3[nH]2)cc1)c1ccc(Cl)cc1 | -7.523 | -17.6 | -21.8
CN(C)c1ccc(C=Cc2nc(=O)c3ccccc3o2)cc1 | 54.94 | 17.6 | -16.7
CN(N=O)C1=C(NC2CCCCC2)C(=O)c2ccccc2C1=O | -8.019 | 10.5 | -27.6
CCOC(=O)C1=C(C)N=c2sc(=Cc3ccccc3O)c(=O)n2C1c1ccc(OC)c2ccccc12 (configuration not stated) | 3.682 | -4.7 | -23.7
Cc1ccc(-c2cc3c(SCC(=O)Nc4cc(C(F)(F)F)ccc4Cl)nccn3n2)cc1 | -10.47 | 11.4 | 0.168
Cl.Cn1c(=O)n(C)c2cc(CNCCNc3ccnc4cc(Cl)ccc34)ccc21 | -19.76 | -3.18 | -26.8
COc1ccc(-c2nonc2NC(=O)c2cccc(Cl)c2)cc1OC | -15.75 | 18.1 | 12
COc1cc(C(=O)Nc2nc3c(cc4c5c(cccc53)CC4)s2)cc(OC)c1OC | 5.808 | -1.82 | -22.3
CCCc1c(C)nc2ccccc2c1O | 34.59 | 66.4 | 1.84
CSc1ccccc1C(=O)Nc1nc(-c2ccccn2)cs1 | -9.487 | 20.5 | -18.6
COc1ccc(-c2nc(NC(=O)CS(=O)(=O)c3ccc(F)cc3)sc2C)cc1 | -6.755 | -20.9 | 7.25
O=C(Nc1ccc(Cl)cc1)N1CCN(c2ccc3nncn3n2)CC1 | 8.279 | 25.9 | -16.6
CCOc1ccc(-c2nonc2NC(=O)c2cccc(C)c2)cc1OCC | -6.946 | 52.4 | -7.75
COc1ccc2sc(N(Cc3cccnc3)C(=O)c3ccc(C#N)cc3)nc2c1 | -20.76 | 18.5 | -25.4
CCCn1c(=N)c(C(=O)NC2CCCCC2)cc2c(=O)n3cccc(C)c3nc21 | -1.292 | 22.1 | -11.9
Cc1cc(Nc2ccc3ccccc3c2)n2ncnc2n1 | -3.995 | -4.18 | -8.79
CCCCCCC(O)(c1ccc(F)cc1)C(CN1CCOCC1)c1ccccc1.Cl (configuration not stated) | -9.863 | -64 | 17.7
Cc1cccc(Nc2nc(N)c3ccccc3n2)c1.Cl | -25.03 | -38.3 | -22.2

Compound | inhibition (Plasmodium berghei) [%] | inhibition (Plasmodium falciparum [1]) [%] | inhibition (Plasmodium falciparum [2]) [%]
Cl.Oc1ccccc1CNCC12CC3CC(CC(C3)C1)C2 | -22.21 | -27.5 | -6.61
CCOc1ccc2c(c1)CN(Cc1ccc(Cl)cc1)CO2 | 5.14 | 18.9 | -18.1
Cc1cc(C)c2c(c1)OCN(Cc1ccccc1Cl)C2 | -11.06 | 25.8 | -10
Cl.c1ccc2c(NCCCCCCNc3c4c(nc5ccccc35)CCCC4)c3c(nc2c1)CCCC3 | -0.2313 | 18.8 | -9.36
Cc1cccc(N2C(=O)C3C(C2=O)C2(c4ccccc4)C(=O)C3(c3ccccc3)C(c3ccc4c(c3)OCO4)=C2c2ccc3c(c2)OCO3)c1 (configuration not stated) | -6.32 | 32.3 | -2.01
CC(C)=CCN1CCC(C(=O)Nc2ccc(-c3nc4ccccc4[nH]3)cc2)CC1 | -16.54 | -15.4 | -19.7
COc1cc(OC)cc(N2C(=O)N(Cc3ccc(C(C)(C)C)cc3)c3ccccc3S2(=O)=O)c1 | -1.934 | 8.32 | -7.89
CN(C)CCNc1cc(-c2ccccc2)nc2ccccc12 | -1.411 | 2.52 | -24.1
COc1cc(-c2nc(-c3ccccc3)c(-c3ccccc3)[nH]2)cc(OC)c1O | -13.75 | 5 | -41.1
CC(=O)NCCc1nc2ccccc2n1Cc1ccc(C(C)C)cc1 | -8.216 | -6.3 | -12.8
Br.CCN(CC)S(=O)(=O)c1ccc(-c2csc(Nc3ccc(C)c(C)c3)n2)cc1 | -11.5 | 21.9 | -51.5
Cc1cc(Nc2ccc(C)c(Cl)c2)n2nc(C(F)(F)F)nc2n1 | -5.541 | 17.1 | -44.8
CC(C)(C)c1ccc(C2CC3=Nc4ccccc4N(C(=O)c4ccccc4Cl)C(c4ccc(F)cc4)C3=C(O)C2)cc1 (configuration not stated) | 4.566 | -39.9 | -44.4
CCOc1ccccc1NC(=O)CN1CCN(C(=O)c2ccco2)CC1 | -13.05 | 19.3 | 12.9
Cc1cc(C)cc(Nc2cc(C)nc3nc(C(F)(F)F)nn23)c1 | -26.51 | 13.1 | -17.3
C=CC12CCN(CC1)C(C(O)c1ccnc3ccc(OC)cc13)C2.Cl (configuration not stated) | -25.15 | -29.1 | -31.3
O=C(Nc1ccc(Cl)cc1C(=O)Nc1ccncc1)c1ccc(Cl)cc1Cl | 36.2 | 7.46 | 9.34
CCc1c(C)c(=N)c2ccccc2n1C.I | -36.84 | -21.8 | -14.1
OC(CNC1CCCCC1)Cn1c2ccccc2c2ccccc21 (configuration not stated) | 28.1 | 12.1 | 4.91
Cc1cc(NC(=O)c2cccc(C(F)(F)F)c2)n(-c2nc(-c3ccc4c(c3)OCO4)cs2)n1 | -1.403 | 11.3 | 17.1
COc1ccc(Nc2nc(N/N=C/c3ccc(O)cc3)nc(Nc3ccc([N+](=O)[O-])cc3)n2)cc1 | 30.88 | -4.02 | -19.8
O=c1cc(NC2CCN(CCCc3ccccc3)CC2)c2cc(Cl)ccc2o1 | 7.737 | -9.89 | -4.85

Compound | inhibition (Plasmodium berghei) [%] | inhibition (Plasmodium falciparum [1]) [%] | inhibition (Plasmodium falciparum [2]) [%]
Oc1ccc2ccccc2c1CNc1nc2ccccc2[nH]1 | -28.7 | 31.6 | -19.1
CCOC(=O)C1=C(C)N=c2sc(=Cc3cc(Cl)ccc3O)c(=O)n2C1c1ccc(OC)cc1 (configuration not stated) | 5.932 | -29.2 | -13
CCCCCCOC(=O)C1=C(C)NC(=O)NC1c1ccccc1F (configuration not stated) | -7.086 | 11.4 | -1.36
CCCN(CCC)CCCNC(=O)c1cc2c(-c3ccc(OC)c(OC)c3)nn(C)c2s1 | 5.504 | -20.2 | -7.86
CCn1c(SCC(=O)Nc2cc(C(F)(F)F)ccc2Cl)nc2ccccc2c1=O | -2.806 | 22.5 | -19.5
COc1ccc(CNC2CCN(c3ccc(NC(=O)c4cccc(Cl)c4)cc3)CC2)cc1OC | -11.96 | 15 | -36.5
N=c1c2ccccc2nnn1-c1cccc(C(F)(F)F)c1 | -9.695 | 51.2 | 7.15
CCOc1cccc2sc(N(Cc3cccnc3)C(=O)C3CCCCC3)nc12 | -7.751 | -1.33 | -5.49
Oc1c(CN2CCN(c3ccccc3F)CC2)cc(Br)c2cccnc12 | 34.85 | 5.41 | 31.5
c1ccc(/C2=N/c3ccccc3/N=C(/c3ccccc3)c3ccccc32)cc1 | 4.56 | 41.7 | 5.88
Cc1ccc(N2C(=O)C3C(C2=O)C2(c4ccccc4)C(=O)C3(c3ccccc3)C(c3ccccc3)=C2c2ccccc2)cc1 (configuration not stated) | -15.1 | 21.2 | -19.9
CCN1CCN(c2c(C(=O)c3ccccc3)cnc3cc(OC)c(OC)cc23)CC1 | -4.456 | -41.4 | -6.16
Cc1c(C)n(CC(O)CNC2CCCCC2C)c2ccccc12 (configuration not stated) | -21.36 | 8.26 | -4.05
O=C(NCC1Cc2cccc(-c3ccncc3)c2O1)c1csc2c1CCCC2 (configuration not stated) | -13.38 | 20.6 | -19.3
CCN(CC)CCNc1ccnc2cc(Cl)ccc12 | -23.67 | -16.3 | -29.9
CCCOCc1cc(CN2CCN(c3cccc(Cl)c3)CC2)c(O)c2ncccc12 | -5.698 | 19 | 14.3
C=C(C)CCC(C)N1CCC(N2CCC(C(=O)NCCc3ccccc3)CC2)CC1 (configuration not stated) | -5.335 | 9.7 | -6.85
O=C(c1ccccc1F)N(Cc1ccc(Cl)cc1)c1ccccn1 | -2.284 | 20.3 | -28.6
COc1ccc(C)c2sc(N(Cc3cccnc3)C(=O)c3ccc(C#N)cc3)nc12 | 2.145 | -18.7 | -37.8
COc1cccc(Nc2nc(NCCO)c3ccccc3n2)c1.Cl | -13.29 | -137 | -29.6
